Test results from US20060172004A1, “Oral compositions for the stimulation of gastric acid secretion comprising pentagastrin” (priority 2003, published 2006).
Like-named read-outs stand apart in the source and are kept apart here.

Experiments:
gastrin receptor (CCKB) = molecular target: T1, gastrin receptor (CCKB) (Rattus norvegicus, UniProt P30553); experiment: Effect of CCKB antagonist on PG-mediated gastric acid secretion in pylorus-ligated rats; format: in vivo
T1 construct: from tissue; host or cells: stomach of live anesthetized pylorus-ligated rats (in vivo)
T1 sequence (P30553 1-452): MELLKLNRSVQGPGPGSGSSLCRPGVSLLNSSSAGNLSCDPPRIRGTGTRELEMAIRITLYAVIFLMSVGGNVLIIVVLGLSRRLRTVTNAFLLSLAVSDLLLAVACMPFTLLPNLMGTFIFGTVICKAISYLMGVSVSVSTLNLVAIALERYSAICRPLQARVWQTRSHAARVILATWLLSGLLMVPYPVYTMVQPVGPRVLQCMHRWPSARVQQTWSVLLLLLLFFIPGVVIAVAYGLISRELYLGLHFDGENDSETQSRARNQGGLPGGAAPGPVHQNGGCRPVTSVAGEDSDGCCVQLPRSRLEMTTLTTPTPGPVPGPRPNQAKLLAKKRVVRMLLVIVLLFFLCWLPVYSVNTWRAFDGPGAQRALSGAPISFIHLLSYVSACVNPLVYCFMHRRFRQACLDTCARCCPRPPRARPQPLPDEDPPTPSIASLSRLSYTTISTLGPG
Method: As PG is a gastrin hormone homologue, its local effect is thought to be mediated via gastrin pathway, i.e. an activation of gastrin receptor (CCKB). To test this hypothesis the effect of the specific CCKB antagonist (Itriglumide) on PG-mediated acid secretion in rats was examined.
In this study, rats were anesthetized with Ketamine and Domitor mixture and provided with 20 mg/kg of Itriglumide that was administered intraduodenally (i.d.). Following 15 min, gastric pylorus was ligated and 300 μg/kg PG was administered into the stomach (i.g.). After 30 min, gastric juice was obtained, centrifuged and the volume and pH of the supernatants were measured. The acid concentration (titratable acidity) was analyzed by titration the gastric juice samples with NaOH and total acid output expressed in […] HCl was calculated by multiplying the sample volume by the acid concentration.

[1] = for radioactivity in systemic circulation: oral dose 50×10^6 CPM; for Radioactivity in systemic circulation % of Total Radioactivity/Dose: 50 μg/kg
Method: The bioavailability of PG in rats following oral administration of ^3H-labeled PG was studied. Male Wister Hanover rats were anaesthetized and catheters were positioned in the jugular vein for blood sampling. Rats were treated orally with ^3H-PG at a dose of 50 μg/kg (50×10^6 CPM per dose) and blood samples were drawn at 5, 15 and 30 minutes. The radioactivity in blood samples at each time point was determined by a β-counter.

gastric acid secretion = experiment: Gastric pH and acid output after tetragastrin s.c. or per os in pylorus-ligated rats; format: in vivo, Wister rats; details: for acid secretion: 30 min, titration with NaOH to pH 7; for gastric pH: gastric juice collected 30 min after treatment
Method: The effect of tetragastrin (Trp-Met-Asp-PheNH2) administered orally in stimulating gastric acid secretion was examined. […] Tetragastrin was administered either s.c. (25 μg/kg) or per os (206 μg/kg) and gastric juice was collected 30 min following treatment. Acid concentration was measured by titration the samples with NaOH to pH=7. Results are expressed as means±SEM of 3-4 animals.

For `Cc1cc(C)c(NC(=O)C[C@H](CC(=O)O)c2cccc3ccccc23)c(C(=O)N2CCC3(CCCC3)CC2)c1` [CCKB ant., Itriglumide], the “Acid Output MEAN” value (gastrin receptor (CCKB); CCKB ant. i.d. 20 mg/kg alone, pylorus-ligated rats) was 15.24 pEq HCl and the “effect of antagonist on PG-mediated gastric acid secretion” value (gastrin receptor (CCKB); intraduodenal 20 mg/kg, PG 300 μg/kg i.g., rats) was “inhibits the local effect of PG on gastric acid secretion”.
With `CSCC[C@H](NC(=O)[C@H](Cc1c[nH]c2ccccc12)NC(=O)CCNC(=O)OC(C)(C)C)C(=O)N[C@@H](CC(=O)O)C(=O)N[C@@H](Cc1ccccc1)C(N)=O` [^3H-PG] the “radioactivity in systemic circulation” value ([1]; 5 min) was 748×10^3 CPM, the “Radioactivity in systemic circulation % of Total Radioactivity/Dose” value ([1]; 5 min following oral administration) was 1.43% and the “radioactivity in systemic circulation” value ([1]; 15 min) was 982×10^3 CPM. For the same compound, the “Radioactivity in systemic circulation % of Total Radioactivity/Dose” value ([1]; 15 min following oral administration) was 1.67%, the “radioactivity in systemic circulation” value ([1]; 30 min) was 832×10^3 CPM and the “Radioactivity in systemic circulation % of Total Radioactivity/Dose” value ([1]; 30 min following oral administration) was 1.42%. For the same compound, the “share of total orally administered radioactivity that entered the systemic circulation” value ([1]; oral 50 μg/kg (50×10^6 CPM), over 5-30 min) was “approximately 1.5%”.
For `CSCC[C@H](NC(=O)[C@@H](N)Cc1c[nH]c2ccccc12)C(=O)N[C@@H](CC(=O)O)C(=O)N[C@@H](Cc1ccccc1)C(N)=O` [tetragastrin, Trp-Met-Asp-PheNH2], the “local stimulation of gastric acid secretion compared to PG” value (gastric acid secretion; equimolar dose, oral) was “less prominent as compared to PG”, the acid secretion (gastric acid secretion; per os 206 μg/kg) was “elevated acid secretion” and the “gastric pH” value (gastric acid secretion; per os 206 μg/kg) was “reduced gastric pH”. The acid secretion (gastric acid secretion; s.c. 25 μg/kg) was “elevated acid secretion” and the “gastric pH” value (gastric acid secretion; s.c. 25 μg/kg) was “reduced gastric pH”.
